Measurements reported in ChEMBL document CHEMBL4417638, “Novel cyclic peptides and uses thereof” (2018).
The source made the active and inactive calls. No cut-off for these calls is given here. Numbered stars: 1 amine (or outer) side, 2 acyl side, 3 side chain; on linkers, the order of the positions; unused ones are H or OH. Square brackets hold non-standard residues; d marks the D form. Peptide text beside a SMILES is read from it. azaTyr = O=C(N(Cc1ccc(O)cc1)N[*:1])[*:2]

Assays:
RAW264.7 [1] = test: Inhibition of R-FSL-1-induced nitric oxide production in mouse RAW264.7 cells at 10 uM pre-incubated for 1 hr before R-FSL-1 stimulation by fluorescence based assay relative to control; assay type: functional
RAW264.7 [2] = test: Inhibition of R-FSL-1-induced TNFalpha production in mouse RAW264.7 cells at 10 uM pre-incubated for 30 mins before R-FSL-1 stimulation for 4 hrs by ELISA; assay type: functional, cell-based
RAW264.7 [3] = test: Inhibition of R-FSL-1-induced CCL2 production in mouse RAW264.7 cells at 10 uM pre-incubated for 30 mins before R-FSL-1 stimulation for 4 hrs by ELISA; assay type: functional, cell-based
Mus musculus [4] = test: Anti-atherosclerotic activity in atherogenic diet fed apoE-/- mouse assessed as reduction in aortic lesions at 300 nmol/kg, sc dosed daily for 8 weeks from 12 weeks of age relative to control; assay type: functional
Mus musculus [5] = test: Protection against photoreceptor degeneration in mouse model of intense blue light-induced dry age related macular degeneration assessed as reduction in subretinal inflammation by measuring reduction in IL-1p-expressing immune cell infiltration in retina at 289 nmol/kg, sc starting one day after start of blue-light exposure for 7 consecutive days; assay type: functional, organism-based
Mus musculus [6] = test: (§1) Protection against photoreceptor degeneration in mouse model of intense blue light-induced dry age related macular degeneration assessed as preservation of ONL thickness at 289 nmol/kg, sc starting one day after start of blue-light exposure for 7 consecutive days; assay type: functional, organism-based
BMDM [7] = test: Inhibition of R-FSL-1-induced IL-1beta production in C57BL/6 mouse BMDM at 10 pM to 1 uM pre-incubated for 30 mins before R-FSL-1 stimulation for 4 hrs by ELISA; assay type: functional, cell-based
Mus musculus [8] = test: as §1, with “improvement” for “preservation”, “retinal function by measuring increase in a-wave and b-wave amplitudes” for “ONL thickness”, “days by electroretinography analysis” for “days”; assay type: functional, organism-based
BMDM [9] = test: Inhibition of R-FSL-1-induced TNFalpha production in C57BL/6 mouse BMDM at 10 pM to 1 uM pre-incubated for 30 mins before R-FSL-1 stimulation for 4 hrs by ELISA; assay type: functional, cell-based
Platelet glycoprotein 4 = Platelet glycoprotein 4 (Rattus norvegicus, UniProt Q07969); test: Displacement of [125]-Tyr-Bpa-Ala-Hexarelin from CD36 in Sprague-Dawley rat heart membranes incubated for 60 mins; assay type: cell membranes
Chain of Platelet glycoprotein 4 (Q07969 whole entry): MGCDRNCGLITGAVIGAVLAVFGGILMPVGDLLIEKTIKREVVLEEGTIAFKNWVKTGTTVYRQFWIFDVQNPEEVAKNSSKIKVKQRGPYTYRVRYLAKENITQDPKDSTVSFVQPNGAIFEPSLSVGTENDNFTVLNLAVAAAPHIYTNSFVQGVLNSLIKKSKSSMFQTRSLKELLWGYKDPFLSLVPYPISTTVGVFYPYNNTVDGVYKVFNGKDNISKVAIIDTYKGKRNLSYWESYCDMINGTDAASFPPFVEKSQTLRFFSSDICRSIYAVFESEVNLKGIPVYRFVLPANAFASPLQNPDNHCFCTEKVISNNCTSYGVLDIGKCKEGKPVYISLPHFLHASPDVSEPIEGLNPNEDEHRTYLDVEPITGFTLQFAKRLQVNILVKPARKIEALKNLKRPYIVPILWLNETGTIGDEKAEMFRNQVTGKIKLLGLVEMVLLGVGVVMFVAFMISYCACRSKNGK

SMILES	inhibition (RAW264.7 [2])	inhibition (RAW264.7 [3])	inhibition (RAW264.7 [1])	also measured
C=CCN1CC#CCN(NC(C)=O)C(=O)N[C@H](Cc2c[nH]c3ccccc23)C(=O)N[C@@H](C)C(=O)N[C@@H](Cc2c[nH]c3ccccc23)C(=O)N[C@H](Cc2ccccc2)C(=O)N[C@H](C(N)=O)CCCC1	Active	Active	–	inhibition at 10 µM (RAW264.7 [1]): 80%; inhibition (Mus musculus [4]): Active
C=CCN1CC#CCN(NC(=O)[C@H](C)N)C(=O)N[C@H](Cc2c[nH]c3ccccc23)C(=O)N[C@@H](C)C(=O)N[C@@H](Cc2c[nH]c3ccccc23)C(=O)N[C@H](Cc2ccccc2)C(=O)N[C@H](C(N)=O)CCCC1	Active	Active	Active	Activity (Mus musculus [5]): Active; Activity (Mus musculus [6]): Active; inhibition (BMDM [7]): Active; Activity (Mus musculus [8]): Active; inhibition (BMDM [9]): Active
CCCN1CC#CCN(NC(=O)CN)C(=O)N[C@H](Cc2c[nH]c3ccccc23)C(=O)N[C@@H](C)C(=O)N[C@@H](Cc2c[nH]c3ccccc23)C(=O)N[C@H](Cc2ccccc2)C(=O)N[C@H](C(N)=O)CCCC1	–	–	Active	IC50 (Platelet glycoprotein 4): 1490 nM
C=CCN1CC#CC[C@H](NC(=O)[C@H](C)N)C(=O)N[C@H](Cc2c[nH]c3ccccc23)C(=O)N[C@@H](C)C(=O)N[C@@H](Cc2c[nH]c3ccccc23)C(=O)N[C@H](Cc2ccccc2)C(=O)N[C@H](C(N)=O)CCCC1	–	–	Active	–
C=CCN1CC#CCN(NC(=O)[C@@H](C)N)C(=O)N[C@H](Cc2c[nH]c3ccccc23)C(=O)N[C@@H](C)C(=O)NN(Cc2ccc(OC)cc2)C(=O)N[C@H](Cc2ccccc2)C(=O)N[C@H](C(N)=O)CCCC1	–	–	Active	–
C=CCN1CC#CCN(NC(=O)[C@H](C)N)C(=O)N[C@@H](C)C(=O)N[C@@H](Cc2c[nH]c3ccccc23)C(=O)N[C@H](Cc2ccccc2)C(=O)N[C@H](C(N)=O)CCCC1	Active	Active	Active	–
CN1CC#CCN(NC(=O)[C@@H](Cc2c[nH]c3ccccc23)NC(=O)[C@@H](N)Cc2cnc[nH]2)C(=O)N[C@@H](Cc2c[nH]c3ccccc23)C(=O)N[C@H](Cc2ccccc2)C(=O)N[C@H](C(N)=O)CCCC1	inactive	inactive	–	–
C[C@H](NC(=O)[C@@H](Cc1c[nH]c2ccccc12)NC(=O)[C@@H](N)Cc1cnc[nH]1)C(=O)NN(Cc1ccc(O)cc1)C(=O)N[C@H](Cc1ccccc1)C(=O)N[C@@H](CCCCN)C(N)=O (H-H[dW]A[azaTyr][dF]K-NH2)	Active	Active	–	inhibition (Mus musculus [4]): Active
C=CCN1CC#CCN(NC(=O)[C@@H](Cc2c[nH]c3ccccc23)NC(=O)[C@@H](N)Cc2cnc[nH]2)C(=O)N[C@@H](Cc2c[nH]c3ccccc23)C(=O)N[C@H](Cc2ccccc2)C(=O)N[C@H](C(N)=O)CCCC1	Active	Active	Active	–
C=CCN1CC#CCN(NC(=O)[C@H](C)NC(C)=O)C(=O)N[C@H](Cc2c[nH]c3ccccc23)C(=O)N[C@@H](C)C(=O)N[C@@H](Cc2c[nH]c3ccccc23)C(=O)N[C@H](Cc2ccccc2)C(=O)N[C@H](C(N)=O)CCCC1	Active	Active	–	inhibition at 10 µM (RAW264.7 [1]): 80%; inhibition (Mus musculus [4]): Active
C=CCN1CC#CCN(N)C(=O)N[C@H](Cc2c[nH]c3ccccc23)C(=O)N[C@@H](C)C(=O)N[C@@H](Cc2c[nH]c3ccccc23)C(=O)N[C@H](Cc2ccccc2)C(=O)N[C@H](C(N)=O)CCCC1	inactive	inactive	–	inhibition at 10 µM (RAW264.7 [1]): 80%; inhibition (Mus musculus [4]): Active
C=CCN1CC#CC[C@H](NC(=O)[C@H](C)N)C(=O)N[C@@H](C)C(=O)N[C@@H](Cc2c[nH]c3ccccc23)C(=O)N[C@H](Cc2ccccc2)C(=O)N[C@H](C(N)=O)CCCC1	–	–	Active	–
C[C@@H]1NC(=O)[C@@H](Cc2c[nH]c3ccccc23)NC(=O)N(NC(=O)CN)CC#CCN(CC2CC2)CCCC[C@@H](C(N)=O)NC(=O)[C@@H](Cc2ccccc2)NC(=O)[C@H](Cc2c[nH]c3ccccc23)NC1=O	–	–	Active	IC50 (Platelet glycoprotein 4): 980 nM
C=CCN1CC#CCN(NC(=O)CN)C(=O)N[C@H](Cc2c[nH]c3ccccc23)C(=O)N[C@@H](C)C(=O)N[C@@H](Cc2c[nH]c3ccccc23)C(=O)N[C@H](Cc2ccccc2)C(=O)N[C@H](C(N)=O)CCCC1	–	–	–	IC50 (Platelet glycoprotein 4): 12900 nM
C=CCN1CC#CCN(NC(=O)[C@H](C)N)C(=O)N[C@H](Cc2c[nH]c3ccccc23)C(=O)N[C@@H](C)C(=O)N[C@H](C(=O)N[C@H](Cc2ccccc2)C(=O)N[C@@H](CCCCN)C(N)=O)CCCC1	–	–	Active	–
